Data as given in PubChem BioAssay AID2060610 (Molecular Pharmacology Branch, DTP, NCI, 2025).
Blank lines part the entries; values can stand above or below the compound they belong to.

Tested on: 616215-338-R-J1-PDC complex spheroids, viability % test/control
Assay: Anticancer human tumor 616215-338-R-J1-PDC patient-derived colon adenocarcinoma cell line growth inhibition [CLK]
Details: for IC50: curve of first compound; for viability, T/C: stronger effect = lower value
Procedure, shortened: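 Multi-cell-type spheroids combined patient-derived tumor cells with HUVEC endothelial cells and human mesenchymal stem cells. Paired agents were dosed in half-log steps down from about clinical Cmax, or from 10 microM where Cmax was unknown.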

[1] = second compound 0.0316 µM, first compound 0.00316 µM
[2] = second compound 0.0316 µM, first compound 0.01 µM
[3] = second compound 0.0316 µM, first compound 0.0316 µM
[4] = second compound 0.0316 µM, first compound 0.1 µM
[5] = second compound 0.0316 µM, first compound 0.316 µM
[6] = second compound 0.0316 µM, first compound 1 µM
[7] = second compound 0.1 µM, first compound 0.00316 µM
[8] = second compound 0.1 µM, first compound 0.01 µM
[9] = second compound 0.1 µM, first compound 0.0316 µM
[10] = second compound 0.1 µM, first compound 0.1 µM
[11] = second compound 0.1 µM, first compound 0.316 µM
[12] = second compound 0.1 µM, first compound 1 µM
[13] = second compound 0.316 µM, first compound 0.00316 µM
[14] = second compound 0.316 µM, first compound 0.01 µM
[15] = second compound 0.316 µM, first compound 0.0316 µM
[16] = second compound 0.316 µM, first compound 0.1 µM
[17] = second compound 0.316 µM, first compound 0.316 µM
[18] = second compound 0.316 µM, first compound 1 µM
[19] = second compound 1 µM, first compound 0.00316 µM
[20] = second compound 1 µM, first compound 0.01 µM
[21] = second compound 1 µM, first compound 0.0316 µM
[22] = second compound 1 µM, first compound 0.1 µM
[23] = second compound 1 µM, first compound 0.316 µM
[24] = second compound 1 µM, first compound 1 µM
[25] = second compound 3.16 µM, first compound 0.00316 µM
[26] = second compound 3.16 µM, first compound 0.01 µM
[27] = second compound 3.16 µM, first compound 0.0316 µM
[28] = second compound 3.16 µM, first compound 0.1 µM
[29] = second compound 3.16 µM, first compound 0.316 µM
[30] = second compound 3.16 µM, first compound 1 µM
[31] = second compound 10 µM, first compound 0.00316 µM
[32] = second compound 10 µM, first compound 0.01 µM
[33] = second compound 10 µM, first compound 0.0316 µM
[34] = second compound 10 µM, first compound 0.1 µM
[35] = second compound 10 µM, first compound 0.316 µM
[36] = second compound 10 µM, first compound 1 µM
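Note: spheroids exposed to agents for 7 days.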
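Throughout, for viability, T/C: 100% = DMSO vehicle wells.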

SMILES: CCc1c2c(nc3ccc(O)cc13)-c1cc3c(c(=O)n1C2)COC(=O)[C@]3(O)CC + CN1CCN(c2cc(C(=O)Nc3cc4cc(-c5cnn(C)c5)ccc4cn3)ccn2)CC1
- IC50 (second compound 0.0316 µM): 9.64 nM
- IC50 (second compound 0.1 µM): 3.61 nM
- IC50 (second compound 0.316 µM): < 3.16 nM
- IC50 (second compound 1 µM): < 3.16 nM
- IC50 (second compound 3.16 µM): < 3.16 nM
- IC50 (second compound 10 µM): < 3.16 nM
- viability, T/C [1]: 98.2%
- viability, T/C [2]: 42.2%
- viability, T/C [3]: 32.1%
- viability, T/C [4]: 18%
- viability, T/C [5]: 12.9%
- viability, T/C [6]: 4.92%
- viability, T/C [7]: 50.8%
- viability, T/C [8]: 40.2%
- viability, T/C [9]: 19.1%
- viability, T/C [10]: 13.1%
- viability, T/C [11]: 14.1%
- viability, T/C [12]: 1.26%
- viability, T/C [13]: 34.2%
- viability, T/C [14]: 17.8%
- viability, T/C [15]: 13.5%
- viability, T/C [16]: 8.84%
- viability, T/C [17]: 1.45%
- viability, T/C [18]: 1.92%
- viability, T/C [19]: 0.13%
- viability, T/C [20]: 0.13%
- viability, T/C [21]: 3.09%
- viability, T/C [22]: 0.08%
- viability, T/C [23]: 0.06%
- viability, T/C [24]: 1.66%
- viability, T/C [25]: 0.07%
- viability, T/C [26]: 0.12%
- viability, T/C [27]: 1.53%
- viability, T/C [28]: 0.09%
- viability, T/C [29]: 3.53%
- viability, T/C [30]: 4.86%
- viability, T/C [31]: 0.08%
- viability, T/C [32]: 0.13%
- viability, T/C [33]: 0.18%
- viability, T/C [34]: 0.13%
- viability, T/C [35]: 3.18%
- viability, T/C [36]: 1.61%

- IC50 (second compound 0.0316 µM): > 100 nM
- IC50 (second compound 0.1 µM): < 0.316 nM
- IC50 (second compound 0.316 µM): < 0.316 nM
- IC50 (second compound 1 µM): < 0.316 nM
- IC50 (second compound 3.16 µM): < 0.316 nM
- IC50 (second compound 10 µM): < 0.316 nM
SMILES: Cn1ncnc1[C@H]1c2n[nH]c(=O)c3cc(F)cc(c23)N[C@@H]1c1ccc(F)cc1 + CNC(=O)c1ccc(Nc2nc(OC3CCCC3)c3c(-c4ccc5nc(C)oc5c4)c[nH]c3n2)c(OC)c1
- viability, T/C (second compound 0.0316 µM, first compound 0.000316 µM): 97.2%
- viability, T/C (second compound 0.0316 µM, first compound 0.001 µM): 93.8%
- viability, T/C [1]: 102%
- viability, T/C [2]: 102%
- viability, T/C [3]: 101%
- viability, T/C [4]: 108%
- viability, T/C (second compound 0.1 µM, first compound 0.000316 µM): 46.1%
- viability, T/C (second compound 0.1 µM, first compound 0.001 µM): 46.5%
- viability, T/C [7]: 47.9%
- viability, T/C [8]: 54.5%
- viability, T/C [9]: 59.8%
- viability, T/C [10]: 49.6%
- viability, T/C (second compound 0.316 µM, first compound 0.000316 µM): 46.7%
- viability, T/C (second compound 0.316 µM, first compound 0.001 µM): 45.3%
- viability, T/C [13]: 40.5%
- viability, T/C [14]: 45.1%
- viability, T/C [15]: 37.7%
- viability, T/C [16]: 51.3%
- viability, T/C (second compound 1 µM, first compound 0.000316 µM): 39.2%
- viability, T/C (second compound 1 µM, first compound 0.001 µM): 44.8%
- viability, T/C [19]: 41.9%
- viability, T/C [20]: 48.1%
- viability, T/C [21]: 44.3%
- viability, T/C [22]: 56.3%
- viability, T/C (second compound 3.16 µM, first compound 0.000316 µM): 42.2%
- viability, T/C (second compound 3.16 µM, first compound 0.001 µM): 45.1%
- viability, T/C [25]: 45.5%
- viability, T/C [26]: 42.9%
- viability, T/C [27]: 52%
- viability, T/C [28]: 50.9%
- viability, T/C (second compound 10 µM, first compound 0.000316 µM): 38.8%
- viability, T/C (second compound 10 µM, first compound 0.001 µM): 43.6%
- viability, T/C [31]: 50.2%
- viability, T/C [32]: 50.1%
- viability, T/C [33]: 54.9%
- viability, T/C [34]: 47.2%

SMILES: CC1COCCN1c1cc(C2(S(C)(=N)=O)CC2)nc(-c2ccnc3[nH]ccc23)n1 (stereo unspecified) + CN1CCN(c2cc(C(=O)Nc3cc4cc(-c5cnn(C)c5)ccc4cn3)ccn2)CC1
- IC50 (second compound 0.0316 µM): > 10000 nM
- IC50 (second compound 0.1 µM): 4970 nM
- IC50 (second compound 0.316 µM): < 31.6 nM
- IC50 (second compound 1 µM): < 31.6 nM
- IC50 (second compound 3.16 µM): < 31.6 nM
- IC50 (second compound 10 µM): < 31.6 nM
- viability, T/C [3]: 98.6%
- viability, T/C [4]: 99.8%
- viability, T/C [5]: 95.3%
- viability, T/C [6]: 105%
- viability, T/C (second compound 0.0316 µM, first compound 3.16 µM): 102%
- viability, T/C (second compound 0.0316 µM, first compound 10 µM): 54.7%
- viability, T/C [9]: 117%
- viability, T/C [10]: 106%
- viability, T/C [11]: 96.6%
- viability, T/C [12]: 102%
- viability, T/C (second compound 0.1 µM, first compound 3.16 µM): 60.5%
- viability, T/C (second compound 0.1 µM, first compound 10 µM): 33.5%
- viability, T/C [15]: 34.7%
- viability, T/C [16]: 29.4%
- viability, T/C [17]: 28.4%
- viability, T/C [18]: 21.3%
- viability, T/C (second compound 0.316 µM, first compound 3.16 µM): 23.9%
- viability, T/C (second compound 0.316 µM, first compound 10 µM): 15.4%
- viability, T/C [21]: 0.14%
- viability, T/C [22]: 2.28%
- viability, T/C [23]: 2.21%
- viability, T/C [24]: 0.15%
- viability, T/C (second compound 1 µM, first compound 3.16 µM): 0.1%
- viability, T/C (second compound 1 µM, first compound 10 µM): 2.62%
- viability, T/C [27]: 0.14%
- viability, T/C [28]: 0.12%
- viability, T/C [29]: 0.15%
- viability, T/C [30]: 0.14%
- viability, T/C (second compound 3.16 µM, first compound 3.16 µM): 2.05%
- viability, T/C (second compound 3.16 µM, first compound 10 µM): 3.08%
- viability, T/C [33]: 0.16%
- viability, T/C [34]: 0.15%
- viability, T/C [35]: 0.21%
- viability, T/C [36]: 0.23%
- viability, T/C (second compound 10 µM, first compound 3.16 µM): 0.23%
- viability, T/C (second compound 10 µM, first compound 10 µM): 0.24%
